Test system: Aβ42
Test: In vitro cell screening assay in H4 cells expressing human APP751: Aβ42 by sandwich ELISA
Type: cell-based
Details: compounds 0.003-10 μM, incubated overnight (16-18 h), sandwich ELISA of supernatant
Outline: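 Secreted Aβ42 measured by sandwich ELISA, C-terminal-specific capture and 4G8-HRP detection, TMB read at 450 nm, from supernatants of APP751-expressing H4 cells exposed overnight (16-18 h) to 0.003-10 μM compound in Pro293 medium, 0.33% DMSO. Data scaled between DMSO and DAPT controls; EC50 from variable-slope nonlinear regression.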

EC50 [nM]	EC50 (Homo sapiens) [nM]	Structure (SMILES)
23.5	–	COc1ccc2c(C3CON=C(c4ccc(-n5cnc(C)c5)c(OC)n4)N3)cn(C)c2c1 (single isomer, unassigned; (+)) [Example 258B, (+)-5-(6-methoxy-1-methyl-1H-indol-3-yl)-3-(6-methoxy-5-(4-methyl-1H-imidazol-1-yl)pyridin-2-yl)-5,6-dihydro-4H-1,2,4-oxadiazine]
> 3000	–	COc1nc(C2=NOCC(C3CCC3)N2)ccc1-n1cnc(C)c1 (single isomer, unassigned; (+)) [Example 163A, (+)-5-cyclobutyl-3-(6-methoxy-5-(4-methyl-1H-imidazol-1-yl)pyridin-2-yl)-5,6-dihydro-4H-1,2,4-oxadiazine]
36.5	–	COc1nc(C2=NOCC(c3cc(F)c(F)c(F)c3)N2)ccc1-n1cnc(C)c1 (single isomer, unassigned; (+)) [Example 91B, (+)-3-(6-methoxy-5-(4-methyl-1H-imidazol-1-yl)pyridin-2-yl)-5-(3,4,5-trifluorophenyl)-5,6-dihydro-4H-1,2,4-oxadiazine]
> 3000	–	COc1nc(C2=NOCC(c3coc4ccccc34)N2)ccc1-n1cnc(C)c1 (single isomer, unassigned) [Example 38A, 5-(benzofuran-3-yl)-3-(6-methoxy-5-(4-methyl-1H-imidazol-1-yl)pyridin-2-yl)-5,6-dihydro-4H-1,2,4-oxadiazine]
2460	–	COc1nc(C2=NOCC(C3CCOCC3)N2)ccc1-n1cnc(C)c1 (single isomer, unassigned; (+)) [Example 143B, (+)-3-(6-methoxy-5-(4-methyl-1H-imidazol-1-yl)pyridin-2-yl)-5-(tetrahydro-2H-pyran-4-yl)-5,6-dihydro-4H-1,2,4-oxadiazine]
321	–	COc1nc(C2=NOCC(c3cn(C)c4ncc(Cl)cc34)N2)ccc1-n1cnc(C)c1 (single isomer, unassigned; (-)) [Example 264A, (−)-5-(5-chloro-1-methyl-1H-pyrrolo[2,3-b]pyridin-3-yl)-3-(6-methoxy-5-(4-methyl-1H-imidazol-1-yl)pyridin-2-yl)-5,6-dihydro-4H-1,2,4-oxadiazine]
83.2	–	COc1nc(C2=NOCC(c3cn(C)c4cccc(F)c34)N2)ccc1-n1cnc(C)c1 (single isomer, unassigned; (-)) [Example 191B, (−)-5-(4-fluoro-1-methyl-1H-indol-3-yl)-3-(6-methoxy-5-(4-methyl-1H-imidazol-1-yl)pyridin-2-yl)-5,6-dihydro-4H-1,2,4-oxadiazine]
9	–	COc1cc2c(cc1Cl)c(C1CON=C(c3ccc(-n4cnc(C)c4)c(OC)n3)N1)cn2C (single isomer, unassigned; (+)) [Example 255B, (+)-5-(5-chloro-6-methoxy-1-methyl-1H-indol-3-yl)-3-(6-methoxy-5-(4-methyl-1H-imidazol-1-yl)pyridin-2-yl)-5,6-dihydro-4H-1,2,4-oxadiazine]
–	2130	COc1nc(C2=NOCC(C3CCC(F)(F)CC3)N2)ccc1-n1cnc(C)c1 (single isomer, unassigned; (-)) [Example 139A, (−)-5-(4,4-difluorocyclohexyl)-3-(6-methoxy-5-(4-methyl-1H-imidazol-1-yl)pyridin-2-yl)-5,6-dihydro-4H-1,2,4-oxadiazine]
10.8	–	COc1nc(C2=NOCC(c3cn(C)c4c(F)cccc34)N2)ccc1-n1cnc(C)c1 (single isomer, unassigned; (+)) [Example 231B, (+)-5-(7-fluoro-1-methyl-1H-indol-3-yl)-3-(6-methoxy-5-(4-methyl-1H-imidazol-1-yl)pyridin-2-yl)-5,6-dihydro-4H-1,2,4-oxadiazine]
26.3	–	COc1nc(C2=NOCC(c3cccc(Cl)c3)N2)ccc1-n1cnc(C)c1 (single isomer, unassigned; (+)) [Example 244B, (+)-5-(3-chlorophenyl)-3-(6-methoxy-5-(4-methyl-1H-imidazol-1-yl)pyridin-2-yl)-5,6-dihydro-4H-1,2,4-oxadiazine]
4.8	–	COc1nc(C2=NOCC(c3cc4ccc(C(F)(F)F)cc4o3)N2)ccc1-n1cnc(C)c1 (single isomer, unassigned; (+)) [Example 260B, (+)-3-(6-methoxy-5-(4-methyl-1H-imidazol-1-yl)pyridin-2-yl)-5-(6-(trifluoromethyl)benzofuran-2-yl)-5,6-dihydro-4H-1,2,4-oxadiazine]
–	13.7	COc1nc(C2=NOCC(c3cc4cccc(C)c4o3)N2)ccc1-n1cnc(Cl)c1 (single isomer, unassigned; (+)) [Example 24, (+)-3-(5-(4-Chloro-1H-imidazol-1-yl)-6-methoxypyridin-2-yl)-5-(7-methylbenzofuran-2-yl)-5,6-dihydro-4H-1,2,4-oxadiazine]
36.3	–	COc1nc(C2=NOCC(c3cn(C)c4cccc(OC)c34)N2)ccc1-n1cnc(C)c1 (single isomer, unassigned; (+)) [Example 252B, (+)-5-(4-methoxy-1-methyl-1H-indol-3-yl)-3-(6-methoxy-5-(4-methyl-1H-imidazol-1-yl)pyridin-2-yl)-5,6-dihydro-4H-1,2,4-oxadiazine]
> 3000	–	COc1cc(C2=NOCC(c3nc4cccc(C)c4o3)N2C)ccc1-n1cnc(C)c1 (single isomer, unassigned; (-)) [Example 212B, (−)-2-(3-(3-methoxy-4-(4-methyl-1H-imidazol-1-yl)phenyl)-4-methyl-5,6-dihydro-4H-1,2,4-oxadiazin-5-yl)-7-methylbenzo[d]oxazole]
> 3000	–	COc1nc(C2=NOCC(c3cccc(C#N)c3)N2)ccc1-n1cnc(C)c1 (single isomer, unassigned; (-)) [Example 141A, (−)-3-(3-(6-methoxy-5-(4-methyl-1H-imidazol-1-yl)pyridin-2-yl)-5,6-dihydro-4H-1,2,4-oxadiazin-5-yl) benzonitrile]
> 3000	–	COc1nc(C2=NOCC(c3ccc(F)c(F)c3)N2)ccc1-n1cnc(C)c1 (single isomer, unassigned; (-)) [Example 75A, (−)-5-(3,4-difluorophenyl)-3-(6-methoxy-5-(4-methyl-1H-imidazol-1-yl)pyridin-2-yl)-5,6-dihydro-4H-1,2,4-oxadiazine]
2740	–	COc1nc(C2=NOCC(c3ccccc3)N2)ccc1-n1cnc(C)c1 (single isomer, unassigned) [Example 36A, 3-(6-methoxy-5-(4-methyl-1H-imidazol-1-yl)pyridin-2-yl)-5-phenyl-5,6-dihydro-4H-1,2,4-oxadiazine]
24.6	–	COc1nc(C2=NOCC(c3cc4ccc(F)cc4o3)N2)ccc1-n1cnc(C)c1 (single isomer, unassigned; (+)) [Example 52B, (+)-5-(6-fluorobenzofuran-2-yl)-3-(6-methoxy-5-(4-methyl-1H-imidazol-1-yl)pyridin-2-yl)-5,6-dihydro-4H-1,2,4-oxadiazine]
79.2	–	COc1nc(C2=NOCC(c3cn(C)c4cccc(C#N)c34)N2)ccc1-n1cnc(C)c1 (single isomer, unassigned; (-)) [Example 247B, (−)-3-(3-(6-methoxy-5-(4-methyl-1H-imidazol-1-yl)pyridin-2-yl)-5,6-dihydro-4H-1,2,4-oxadiazin-5-yl)-1-methyl-1H-indole-4-carbonitrile]
> 3000	–	COc1nc(C2=NOCC(CC3CC3)N2)ccc1-n1cnc(C)c1 (single isomer, unassigned) [Example 159A, 5-(cyclopropylmethyl)-3-(6-methoxy-5-(4-methyl-1H-imidazol-1-yl)pyridin-2-yl)-5,6-dihydro-4H-1,2,4-oxadiazine]
8.4	–	COc1nc(C2=NOCC(c3cn(C4CC4)c4cc(F)ccc34)N2)ccc1-n1cnc(C)c1 (single isomer, unassigned; (+)) [Example 228B, (+)-5-(1-cyclopropyl-6-fluoro-1H-indol-3-yl)-3-(6-methoxy-5-(4-methyl-1H-imidazol-1-yl)pyridin-2-yl)-5,6-dihydro-4H-1,2,4-oxadiazine]
21.2	–	COc1cc(Cl)c2c(C3CON=C(c4ccc(-n5cnc(C)c5)c(OC)n4)N3)cn(C)c2c1 (single isomer, unassigned; (-)) [Example 261B, (−)-5-(4-chloro-6-methoxy-1-methyl-1H-indol-3-yl)-3-(6-methoxy-5-(4-methyl-1H-imidazol-1-yl)pyridin-2-yl)-5,6-dihydro-4H-1,2,4-oxadiazine]
54.9	–	CCn1cc(C2CON=C(c3ccc(-n4cnc(C)c4)c(OC)n3)N2)c2cc(Cl)c(F)cc21 (single isomer, unassigned; (-)) [Example 73A, (−)-5-(5-chloro-1-ethyl-6-fluoro-1H-indol-3-yl)-3-(6-methoxy-5-(4-methyl-1H-imidazol-1-yl)pyridin-2-yl)-5,6-dihydro-4H-1,2,4-oxadiazine]
16.7	–	COc1nc(C2=NOCC(c3oc4ccccc4c3C)N2)ccc1-n1cnc(C)c1 (stereo not shown) [Example 16B, 3-(6-methoxy-5-(4-methyl-1H-imidazol-1-yl)pyridin-2-yl)-5-(3-methylbenzofuran-2-yl)-5,6-dihydro-4H-1,2,4-oxadiazine]
55.7	–	COc1nc(C2=NOCC(c3cccc(C(F)(F)F)c3)N2C)ccc1-n1cnc(C)c1 (stereo not shown) [Example 30A, 3-(6-methoxy-5-(4-methyl-1H-imidazol-1-yl)pyridin-2-yl)-4-methyl-5-(3-(trifluoromethyl)phenyl)-5,6-dihydro-4H-1,2,4-oxadiazine]
7.7	–	COc1nc(C2=NOCC(c3cn(C)c4cc(Cl)ccc34)N2)ccc1-n1cnc(C)c1 (single isomer, unassigned; (+)) [Example 194A, (+)-5-(6-chloro-1-methyl-1H-indol-3-yl)-3-(6-methoxy-5-(4-methyl-1H-imidazol-1-yl)pyridin-2-yl)-5,6-dihydro-4H-1,2,4-oxadiazine]
281	–	COc1nc(C2=NOCC(c3noc4ccccc34)N2)ccc1-n1cnc(C)c1 (single isomer, unassigned) [Example 174B, 3-(3-(6-methoxy-5-(4-methyl-1H-imidazol-1-yl)pyridin-2-yl)-5,6-dihydro-4H-1,2,4-oxadiazin-5-yl) benzo[d]isoxazole]
